Results taken from ChEMBL document CHEMBL3244272, “Folate antagonists. 15. 2,3-Diamino-6-(2-naphthylsulfonyl)quinazoline and related 2,4-diamino-6-[(phenyl and naphthyl)sulfinyl and sulfonyl]quinazolines, a potent new class of antimetabolites with phenomenal antimalarial activity” (J Med Chem, 1979).
In brackets after ≈: the same amount, converted by molar mass.

Experiments:
Format in all cases: functional
Enterococcus faecalis = test: Antibacterial activity against Streptococcus faecalis MGH-2 assessed as growth inhibition
Staphylococcus aureus [1] = test: Antibacterial activity against Staphylococcus aureus UC-76 assessed as growth inhibition
Staphylococcus aureus [2] = test: Antibacterial activity against Staphylococcus aureus S18713 assessed as growth inhibition
Pseudomonas aeruginosa = test: Antibacterial activity against Pseudomonas aeruginosa 28 assessed as growth inhibition
Escherichia coli = test: Antibacterial activity against Escherichia coli Vogel assessed as growth inhibition
Shigella sonnei = test: Antibacterial activity against Shigella sonnei C-10 assessed as growth inhibition
[3] = tested on: Mycobacterium tuberculosis; test: Antibacterial activity against Mycobacterium tuberculosis H37Rv assessed as growth inhibition
Plasmodium berghei [4] = test: Antimalarial activity against trophozoite-induced Plasmodium berghei infected in sc dosed mouse assessed as minimum curative dose
Plasmodium berghei [5] = test: Antimalarial activity against trophozoite-induced Plasmodium berghei infected in mouse assessed as change in mean survival time at 80 mg/kg, sc single dose after 72 hrs of infection; settings: route subcutaneous
Plasmodium berghei [6] = test: Antimalarial activity against trophozoite-induced Plasmodium berghei infected in mouse assessed as change in mean survival time at 40 mg/kg, sc single dose after 72 hrs of infection; settings: route subcutaneous
Plasmodium berghei [7] = test: Antimalarial activity against trophozoite-induced Plasmodium berghei infected in mouse assessed as change in mean survival time at 20 mg/kg, sc single dose after 72 hrs of infection; settings: route subcutaneous
Plasmodium berghei [8] = test: Antimalarial activity against trophozoite-induced Plasmodium berghei infected in mouse assessed as change in mean survival time at 10 mg/kg, sc single dose after 72 hrs of infection; settings: route subcutaneous
Plasmodium berghei [9] = test: Antimalarial activity against trophozoite-induced Plasmodium berghei infected in mouse assessed as change in mean survival time at 5 mg/kg, sc single dose after 72 hrs of infection; settings: route subcutaneous
Plasmodium berghei [10] = test: Antimalarial activity against trophozoite-induced Plasmodium berghei infected in mouse assessed as change in mean survival time at 2.5 mg/kg, sc single dose after 72 hrs of infection; settings: route subcutaneous
Plasmodium berghei [11] = test: Antimalarial activity against trophozoite-induced Plasmodium berghei infected in mouse assessed as change in mean survival time at 1.25 mg/kg, sc single dose after 72 hrs of infection; settings: route subcutaneous
Plasmodium berghei [12] = test: Antimalarial activity against trophozoite-induced Plasmodium berghei infected in mouse assessed as change in mean survival time at 320 mg/kg, sc single dose after 72 hrs of infection; settings: route subcutaneous
Plasmodium falciparum [13] = test: Antimalarial activity against chloroquine-sensitive, pyrimethamine-resistant Plasmodium falciparum Malayan Camp CH/Q infected in Aotus monkey assessed as dose required to >50% cures compound treated for 7 days
Plasmodium falciparum [14] = test: Antimalarial activity against chloroquine-resistant, pyrimethamine-sensitive Plasmodium falciparum Vietnam Oak Knoll in Aotus monkey assessed as dose required to >50% cures compound treated for 7 days
Plasmodium berghei [15] = test: Antimalarial activity against trophozoite-induced Plasmodium berghei infected in mouse assessed as change in mean survival time at 160 mg/kg, sc single dose after 72 hrs of infection; settings: route subcutaneous

Compound	MIC (Enterococcus faecalis) [µg/mL]	MIC (Staphylococcus aureus [1]) [µg/mL]	MIC (Staphylococcus aureus [2]) [µg/mL]	MIC (Pseudomonas aeruginosa) [µg/mL]	MIC (Escherichia coli) [µg/mL]	MIC (Shigella sonnei) [µg/mL]	MIC [3] [µg/mL]	MCD (Plasmodium berghei [4]) [mg/kg]	MST (Plasmodium berghei [5]) [days]	MST (Plasmodium berghei [6]) [days]	MST (Plasmodium berghei [7]) [days]	MST (Plasmodium berghei [8]) [days]	MST (Plasmodium berghei [9]) [days]	MST (Plasmodium berghei [10]) [days]	MST (Plasmodium berghei [11]) [days]	MST (Plasmodium berghei [12]) [days]	Activity (Plasmodium falciparum [13]) [mg/kg]	Activity (Plasmodium falciparum [14]) [mg/kg]	MST (Plasmodium berghei [15]) [days]
Nc1nc(N)c2c(Cl)c(S(=O)(=O)c3ccc(F)cc3)ccc2n1	< 0.25	2 (≈ 5.67 µM)	> 25	> 25	10 (≈ 28.3 µM)	> 25	> 25	40	26.9	13.4	9.7	9.3	4.1	0.5	0.5				
Nc1nc(N)c2c(Cl)c([S+]([O-])c3cccc(C(F)(F)F)c3)ccc2n1 (centres undefined)								40	1.1		0.5					1.5			
Nc1nc(N)c2c(Cl)c(S(=O)(=O)c3ccccc3)ccc2n1	< 0.25	2 (≈ 5.97 µM)	2 (≈ 5.97 µM)	> 25	2 (≈ 5.97 µM)	2 (≈ 5.97 µM)	> 25	640		22.4	11.9								
Nc1nc(N)c2c(Cl)c([S+]([O-])c3ccccc3)ccc2n1 (centres undefined)								640	17.9	12.9	8.5								
Nc1nc(N)c2cc([S+]([O-])c3cccc(-c4ccccc4)c3)ccc2n1 (centres undefined)	< 0.25	< 0.25	< 0.25	> 25	> 25	> 25		40	22.9	18.9	11.1	6.7	4.1	1.1	0.5				
Nc1nc(N)c2c(Cl)c([S+]([O-])c3ccc4ccccc4c3)ccc2n1 (centres undefined)	< 0.25	> 25	> 25	> 25	> 25	> 25	> 25	5		23.9	9.3								
Nc1nc(N)c2cc([S+]([O-])c3ccc(Br)cc3)ccc2n1 (centres undefined)	< 0.25	< 0.25	< 0.25	> 25	2.5 (≈ 6.88 µM)	> 25		10		20.9	13.6	10.1	6.7	3.3					
Nc1nc(N)c2c(Cl)c([S+]([O-])c3ccc(F)cc3)ccc2n1 (centres undefined)	< 0.25	< 0.25	1 (≈ 2.97 µM)	> 25	< 0.25	< 0.25	2.5 (≈ 7.42 µM)	40	27.9	20.9	4.1								
COc1cc(Cc2cnc(N)nc2N)cc(OC)c1OC [TRIMETHOPRIM]	< 0.25	< 0.25	< 0.25	> 25	< 0.25	< 0.25	> 25												
Nc1nc(N)c2cc(Sc3cccc(C(F)(F)F)c3)ccc2n1 [WR-159412]																	0.39	0.098	
Nc1nc(N)c2c(Cl)c(S(=O)(=O)c3cccc(C(F)(F)F)c3)ccc2n1	< 0.25	> 25	> 25	> 25	> 25	> 25	> 25	40	1.1	0.7	0.7	0.5				4.7			3.7
Nc1nc(N)c2c(Cl)c(S(=O)(=O)c3ccc4ccccc4c3)ccc2n1	< 0.25	> 25	> 25	> 25	> 25	> 25	> 25	5	7.1	4.7	0.7					13.3			11.5
Nc1nc(N)c2cc(S(=O)(=O)c3ccccc3)ccc2n1								160	12.6	12.1	7.7	5.1	0.3	0.3					
Cc1cc(S(=O)(=O)c2ccc3nc(N)nc(N)c3c2)ccc1Br								80	10.5	5.9	1.5	0.5				18.9			17.4
Nc1nc(N)c2cc(S(=O)(=O)c3cccc4ccccc34)ccc2n1	> 25	> 25	> 25	> 25	> 25	> 25	> 25	80	5.5	3.5	2.9	0.7				14.4			14.3
Nc1nc(N)c2cc([S+]([O-])c3ccc(Cl)c(Cl)c3)ccc2n1 (centres undefined)	< 0.25	> 25	> 25	> 25	> 25	> 25		10		21.9	15.9	8.7	7.9	4.1	1.1				
Nc1nc(N)c2c(Cl)c([S+]([O-])c3ccccc3Cl)ccc2n1 (centres undefined)	< 0.25	2 (≈ 5.66 µM)	> 25	> 25	> 25	> 25	> 25	40			8.6								
Nc1nc(N)c2cc([S+]([O-])c3cccc4ccccc34)ccc2n1 (centres undefined)	> 25	> 25	> 25	> 25	> 25	> 25		80	13.7	7.9	1.9	1.1				16.4			15.2
